Values joined by “and” are separate entries in the source; they are usually repeats but may differ in a detail not shown here. Equal entries are not always repeated. Inconclusive results and toxic doses are left out.
System: P388 leukemia ip, CD2F1 mice, survival T/C
Assay: NCI In Vivo Anticancer Drug Screen. Data for tumor model P388 Leukemia (intraperitoneal) in CD2F1 (CDF1) mice
Conditions: endpoint: median survival time, higher = longer survival
Outline: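 Mice carrying the transplanted tumor received test compound or vehicle. Survival was recorded in each group, and the value is the treated-group measurement divided by that of the vehicle-treated control group.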

[1] = dose: 50.0 mg/kg/injection, schedule: Q01DX009 (ip), vehicle: Klucel (hydroxypropylcellulose) (HPC)
[2] = dose: 100.0 mg/kg/injection, schedule: Q01DX009 (ip), vehicle: Klucel (hydroxypropylcellulose) (HPC)
[3] = dose: 200.0 mg/kg/injection, schedule: Q01DX009 (ip), vehicle: Klucel (hydroxypropylcellulose) (HPC)
[4] = dose: 100.0 mg/kg/injection, schedule: Q01DX009 (ip), vehicle: saline
[5] = dose: 200.0 mg/kg/injection, schedule: Q01DX009 (ip), vehicle: saline
[6] = dose: 50.0 mg/kg/injection, schedule: Q01DX009 (ip), vehicle: saline

## CCNC(=O)OCCN(CCOC(=O)NCC)CCc1ccccc1
dose: 60.0 mg/kg/injection, schedule: Q01DX005 (ip), vehicle: saline
  T/C: 110 % of control
dose: 120.0 mg/kg/injection, schedule: Q01DX005 (ip), vehicle: saline
  T/C: 117 % of control
dose: 240.0 mg/kg/injection, schedule: Q01DX005 (ip), vehicle: saline
  T/C: 99 % of control

## CCCCCCCCCCCCCC[N+]1(CC)CCCCCC1
dose: 0.04 mg/kg/injection, schedule: Q01DX009 (ip), vehicle: saline
  T/C: 100 % of control and 96 % of control

## COc1cc2c(c(OC)c1OC)-c1c(cc3c(c1OC)OCO3)CC(C)C(C)(O)C2OC(=O)c1ccccc1 (stereo unspecified)
dose: 11.25 mg/kg/injection, schedule: Q01DX009 (ip), vehicle: saline + alcohol
  T/C: 104 % of control
dose: 22.5 mg/kg/injection, schedule: Q01DX009 (ip), vehicle: saline + alcohol
  T/C: 104 % of control
dose: 45.0 mg/kg/injection, schedule: Q01DX009 (ip), vehicle: saline + alcohol
  T/C: 95 % of control
dose: 90.0 mg/kg/injection, schedule: Q01DX009 (ip), vehicle: saline + alcohol
  T/C: 97 % of control

## COc1cccc(-c2cc(C(=O)O)c3cc4ccccc4cc3n2)c1OC
[1]
  T/C: 100 % of control
[2]
  T/C: 101 % of control
[3]
  T/C: 100 % of control

## CCOC(=O)CCC(NC(=O)OCCNCCCl)C(=O)OCC (stereo unspecified)
[4]
  T/C: 86 % of control
[5]
  T/C: 86 % of control
dose: 400.0 mg/kg/injection, schedule: Q01DX009 (ip), vehicle: saline
  T/C: 95 % of control

## CN=C(c1ccc(NC(=O)c2ccc(C(=O)Nc3ccc(C(=NC)N(C)C4CCCCC4)cc3)cc2)cc1)N(C)C1CCCCC1
dose: 0.78 mg/kg/injection, schedule: Q01DX005 (ip), vehicle: Klucel (hydroxypropylcellulose) (HPC)
  T/C: 104 % of control
dose: 1.56 mg/kg/injection, schedule: Q01DX005 (ip), vehicle: Klucel (hydroxypropylcellulose) (HPC)
  T/C: 101 % of control
dose: 3.12 mg/kg/injection, schedule: Q01DX005 (ip), vehicle: Klucel (hydroxypropylcellulose) (HPC)
  T/C: 104 % of control

## NC1CN2CCC1CC2 (stereo unspecified)
[6]
  T/C: 104 % of control
[4]
  T/C: 107 % of control
[5]
  T/C: 98 % of control

## CC1=NN(c2ccccc2)C(=O)C1N=Nc1cc(Cl)cc(S(=O)(=O)O)c1O (stereo unspecified)
[6]
  T/C: 96 % of control
[4]
  T/C: 97 % of control

## COc1ccc(C(=O)/C=C/c2ccc(OCc3ccccc3)cc2)c(OC)c1
dose: 6.25 mg/kg/injection, schedule: Q01DX009 (ip), vehicle: saline with Tween-80
  T/C: 99 % of control
dose: 12.5 mg/kg/injection, schedule: Q01DX009 (ip), vehicle: saline with Tween-80
  T/C: 93 % of control
dose: 25.0 mg/kg/injection, schedule: Q01DX009 (ip), vehicle: saline with Tween-80
  T/C: 91 % of control

## COc1ccc(/C=C/c2nc(Nc3ccc(O)c(CN4CCCCC4)c3)c3ccccc3n2)cc1
dose: 50.0 mg/kg/injection, schedule: Q01DX009 (ip), vehicle: distilled water + alcohol
  T/C: 99 % of control
dose: 100.0 mg/kg/injection, schedule: Q01DX009 (ip), vehicle: distilled water + alcohol
  T/C: 100 % of control
dose: 200.0 mg/kg/injection, schedule: Q01DX009 (ip), vehicle: distilled water + alcohol
  T/C: 91 % of control

## COc1cc2c(c(OC)c1OC)-c1ccc(SC)c(=O)cc1C(NC(=O)COP(=O)(O)OCC(=O)NC1CCc3cc(OC)c(OC)c(OC)c3-c3ccc(SC)c(=O)cc31)CC2 (stereo unspecified)
dose: 0.78 mg/kg/injection, schedule: Q01DX009 (ip), vehicle: water
  T/C: 121 % of control
dose: 1.56 mg/kg/injection, schedule: Q01DX009 (ip), vehicle: water
  T/C: 114 % of control
dose: 6.25 mg/kg/injection, schedule: Q01DX009 (ip), vehicle: water
  T/C: 150 % of control

## CCc1cccc(C)c1NC(=O)C(=O)C(C#N)c1ccc(C)cc1 (stereo unspecified)
dose: 50.0 mg/kg/injection, schedule: Q01DX005 (ip), vehicle: saline with Tween-80
  T/C: 99 % of control
dose: 100.0 mg/kg/injection, schedule: Q01DX005 (ip), vehicle: saline with Tween-80
  T/C: 93 % of control
dose: 200.0 mg/kg/injection, schedule: Q01DX005 (ip), vehicle: saline with Tween-80
  T/C: 103 % of control

## COc1cccc2c1C(=O)c1c(O)c3c(c(O)c1C2=O)C[C@@](O)(C(=O)CO)C[C@@H]3OC1CC(N)C(OC)C(C)O1 (stereo partly specified)
dose: 0.39 mg/kg/injection, schedule: Q01DX009 (ip), vehicle: saline
  T/C: 201 % of control
dose: 0.65 mg/kg/injection, schedule: Q01DX009 (ip), vehicle: saline
  T/C: 201 % of control
dose: 1.08 mg/kg/injection, schedule: Q01DX009 (ip), vehicle: saline
  T/C: 324 % of control
dose: 1.08 mg/kg/injection, schedule: Q04DX003 (ip), vehicle: saline
  T/C: 190 % of control
dose: 1.8 mg/kg/injection, schedule: Q04DX003 (ip), vehicle: saline
  T/C: 263 % of control
dose: 3.0 mg/kg/injection, schedule: Q04DX003 (ip), vehicle: saline
  T/C: 257 % of control
dose: 3.13 mg/kg/injection, schedule: Q04DX003 (ip), vehicle: water
  T/C: 172 % of control
dose: 5.0 mg/kg/injection, schedule: Q04DX003 (ip), vehicle: saline
  T/C: 163 % of control and 172 % of control
dose: 12.5 mg/kg/injection, schedule: Q04DX003 (ip), vehicle: water
  T/C: 90 % of control

## COc1ccc(Cc2ccccc2CO)c2ccccc12
dose: 100.0 mg/kg/injection, schedule: Q01DX001 (ip), vehicle: Klucel (hydroxypropylcellulose) (HPC)
  T/C: 100 % of control
dose: 200.0 mg/kg/injection, schedule: Q01DX001 (ip), vehicle: Klucel (hydroxypropylcellulose) (HPC)
  T/C: 100 % of control
dose: 400.0 mg/kg/injection, schedule: Q01DX001 (ip), vehicle: Klucel (hydroxypropylcellulose) (HPC)
  T/C: 100 % of control

## CC(C)C/C=C/CCCCCCCCCC(=O)NCC(=O)NC1C(C)OC(Nc2ncnc3nc[nH]c23)C(O)C1O (stereo unspecified)
dose: 0.5 mg/kg/injection, schedule: Q01DX009 (ip), vehicle: water
  T/C: 112 % of control and 123 % of control (2×)
dose: 1.0 mg/kg/injection, schedule: Q01DX009 (ip), vehicle: water
  T/C: 101 % of control and 103 % of control and 121 % of control
dose: 2.0 mg/kg/injection, schedule: Q01DX009 (ip), vehicle: water
  T/C: 155 % of control
dose: 4.0 mg/kg/injection, schedule: Q01DX009 (ip), vehicle: water
  T/C: 123 % of control and 87 % of control
dose: 8.0 mg/kg/injection, schedule: Q01DX009 (ip), vehicle: water
  T/C: 156 % of control and 178 % of control

## NC(=O)CN1CCN(c2ccnc3cc(Cl)ccc23)CC1
dose: 25.0 mg/kg/injection, schedule: Q04DX002 (ip), vehicle: saline with Tween-80
  T/C: 101 % of control
dose: 50.0 mg/kg/injection, schedule: Q04DX002 (ip), vehicle: saline with Tween-80
  T/C: 99 % of control
dose: 100.0 mg/kg/injection, schedule: Q04DX002 (ip), vehicle: saline with Tween-80
  T/C: 99 % of control and 103 % of control

## CCCCCCC(/C=C/c1ccc(Cl)c(Cl)c1)=N\NC(N)=O
[6]
  T/C: 104 % of control
[4]
  T/C: 100 % of control
[5]
  T/C: 98 % of control

## CN(C(=S=O)c1ccc(Cl)cc1)c1ccccc1
dose: 25.0 mg/kg/injection, schedule: Q01DX009 (ip), vehicle: suspension in saline
  T/C: 101 % of control
dose: 50.0 mg/kg/injection, schedule: Q01DX009 (ip), vehicle: suspension in saline
  T/C: 95 % of control
[4]
  T/C: 90 % of control
dose: 100.0 mg/kg/injection, schedule: Q01DX009 (ip), vehicle: suspension in saline
  T/C: 105 % of control and 97 % of control
[5]
  T/C: 94 % of control

## Cc1cc(OC(N)=S)cc(C)c1Cl
[1]
  T/C: 101 % of control
[2]
  T/C: 100 % of control
[3]
  T/C: 101 % of control

## O=C(Nn1c(=S)[nH]c2ccccc2c1=O)c1ccc([N+](=O)[O-])cc1
dose: 60.0 mg/kg/injection, schedule: Q01DX005 (ip), vehicle: Klucel + Tween-80
  T/C: 93 % of control
dose: 120.0 mg/kg/injection, schedule: Q01DX005 (ip), vehicle: Klucel + Tween-80
  T/C: 87 % of control

## Cc1ccc(NC(=S)NNC(=S)NNc2ccccc2)cc1C
dose: 100.0 mg/kg/injection, schedule: Q01DX005 (ip), vehicle: Klucel (hydroxypropylcellulose) (HPC)
  T/C: 95 % of control
dose: 200.0 mg/kg/injection, schedule: Q01DX005 (ip), vehicle: Klucel (hydroxypropylcellulose) (HPC)
  T/C: 101 % of control
dose: 400.0 mg/kg/injection, schedule: Q01DX005 (ip), vehicle: Klucel (hydroxypropylcellulose) (HPC)
  T/C: 106 % of control

## CC1C2CCC3C(O)C2(CC(O)C2(O)C1CC(O)C2(C)C)CC3(C)O (stereo unspecified)
dose: 0.25 mg/kg/injection, schedule: Q01DX009 (ip), vehicle: Klucel (hydroxypropylcellulose) (HPC)
  T/C: 101 % of control
dose: 0.5 mg/kg/injection, schedule: Q01DX009 (ip), vehicle: Klucel (hydroxypropylcellulose) (HPC)
  T/C: 93 % of control
dose: 1.0 mg/kg/injection, schedule: Q01DX009 (ip), vehicle: Klucel (hydroxypropylcellulose) (HPC)
  T/C: 95 % of control

## COc1ccc(C(=O)CC(C#N)c2ccc(OC)c(OC)c2)cc1OC (stereo unspecified)
dose: 100.0 mg/kg/injection, schedule: Q04DX003 (ip), vehicle: saline with Tween-80
  T/C: 90 % of control
dose: 200.0 mg/kg/injection, schedule: Q04DX003 (ip), vehicle: saline with Tween-80
  T/C: 86 % of control
dose: 400.0 mg/kg/injection, schedule: Q04DX003 (ip), vehicle: saline with Tween-80
  T/C: 86 % of control

— PubChem BioAssay AID330 (DTP/NCI, 2004)
